Measured values as given in US8399440B2, “Disease modifying anti-arthritic activity of 2-methoxyestradiol” (EntreMed, Inc., priority 2006, dated 2013).

Experiments:
lymph node cells = assay: Ex vivo proliferation of lymph node cells from treated rats
Experimental: (§1) Because of the effect of 2ME2 treatment on arthritis severity and the response in the spleen during AA, the T lymphocyte reactivity to mitogens the Mycobacterial purified protein derivative (PPD) antigen was evaluated. […] The effect of various concentrations of 2ME2 in vitro on this proliferative response was evaluated. […] To further assess the effect of 2ME2 on lymphocyte responsiveness, lymph node cells harvested from rats treated with 2ME2 (30 mg/kg/d) from day 6-14 post-immunization were tested for proliferative response to PPD and the mitogens, Con A and PHA and compared to lymphocytes from vehicle-treated animals.

[1] = test system: Arthrogen Collagen MAb-Induced Arthritis; assay: Arthrogen collagen MAb-induced arthritis (Arthrogen-CIA model of RA); type: in vivo, Mouse (Balb/C)
[2] = test system: lymph node cells from rats with AA; assay: Lymph node cell proliferation in vitro (3H-thymidine incorporation)
Experimental: as §1

[3] = test system: Collagen-Induced Arthritis; assay: Collagen-induced arthritis (UCLA studies); type: in vivo, Rat (Louvain)
endothelial cell = assay: Endothelial cell proliferation in vitro
[4] = test system: Adjuvant-Induced Arthritis (Adoptive Transfer Model); assay: Adjuvant-induced arthritis, adoptive transfer model; type: in vivo, Rat (Lewis); conditions: Dalhousie Study #2; 3, 30 mg/kg/d SC
estrogen receptor β = estrogen receptor β (Homo sapiens, UniProt Q92731); conditions: LaVallee et al. 2002; cited from earlier work
Sequence of estrogen receptor β (Q92731 whole entry): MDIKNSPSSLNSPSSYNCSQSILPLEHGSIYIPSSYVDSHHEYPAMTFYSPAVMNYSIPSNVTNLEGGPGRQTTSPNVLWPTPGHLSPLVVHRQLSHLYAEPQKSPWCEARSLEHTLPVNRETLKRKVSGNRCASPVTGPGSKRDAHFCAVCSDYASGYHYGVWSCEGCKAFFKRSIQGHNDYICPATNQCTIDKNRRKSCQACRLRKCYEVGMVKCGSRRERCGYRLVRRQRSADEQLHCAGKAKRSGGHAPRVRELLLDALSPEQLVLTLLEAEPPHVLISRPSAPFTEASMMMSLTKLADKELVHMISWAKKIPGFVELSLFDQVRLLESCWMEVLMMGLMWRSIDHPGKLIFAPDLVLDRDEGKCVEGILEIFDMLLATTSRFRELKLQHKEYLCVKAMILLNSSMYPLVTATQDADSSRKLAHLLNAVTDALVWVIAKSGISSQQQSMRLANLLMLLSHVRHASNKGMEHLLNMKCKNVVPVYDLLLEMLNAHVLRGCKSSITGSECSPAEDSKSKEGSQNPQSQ

[5] = Steady-state PK in study SMP05-010; type: in vivo, Mouse (Balb/C)
synovial microvessels = assay: Synovial vascularity by laminin immunostaining; type: in vivo, Rat (Lewis); conditions: between the various treatment groups and vehicle, any vessel size
Experimental: Tissue samples, including joints, were fixed in 10% phosphate-buffered formalin or AFA fixative ([…], 2% formalin, 5% glacial acetic acid, 20% water), the latter for immunostaining. Samples were then decalcified in formic or acetic acid and paraffin embedded. Sections (5 μm) were stained with hematoxylin-eosin (H&E) using routine techniques. To stain cartilage proteoglycan, separate sections were stained with safranin O (Difco, Detroit, Mich.) for 1 min. as described previously (Issekutz, (2001). To assess microvessel density in the synovium, rabbit anti-mouse laminin polyclonal IgG antibody (Cedarlane Laboratories Limited, Homby, ON) was used to outline vessels, with detection using biotinylated goat anti-rabbit IgG antibody and avidin-biotin complexed with HRPO according to manufacturer's recommendations (Vectastain Elite ABC kit; Vector Laboratories Canada Inc., Burlington, ON).
To assess synovial vascularity and angiogenesis, sections were immunostained for laminin to reliably delineate microvessels as well as medium-sized vessels. […] The other commonly used endothelial cell marker, CD31, was also evaluated on the synovial tissue. […] This vascularity was quantitated in synovia from rats treated with the various protocols and compared to vehicle-treated animals. […] Only vessels that were in cross-section were scored. […]

[6] = test system: PMNL migration to dermal inflammatory reactions; assay: 51Cr-labeled PMNL migration to dermal inflammatory reactions; type: in vivo, Rat (Lewis)
Text: Rat blood PMNL were isolated from a donor arthritic rat by hydroxyethyl starch (Hespan; Dupont Merck, Wilmington, Del.) exchange transfusion performed through a needle inserted in a femoral vein. The exchanged blood was collected into heparin and acid-citrate-dextrose (ACD, formula A; Fenwal-Travenol, Malton, ON) and the leukocyte-rich plasma was harvested during 1 g sedimentation of red blood cells. The PMNL were then isolated by centrifugation on discontinuous Percoll density gradients of 63% Percoll above 74% Percoll with 10% autologous plasma and calcium and magnesium-free Tyrode's solution (TyS^-/-) for the balance of the suspending medium. […] After the cells were washed, they were injected i.v. into rats at a dose of 10^7 51Cr-labeled PMNL per animal bearing approximately 1-2×10^5 cpm. These cells were allowed to circulate and migrate for 2 h prior to sacrifice of the rats. […] List Biologicals, Campbell, Calif.) or zymosan-activated serum (rat) as a source of […].^22 2 h before sacrifice, administered in the doses indicated at the same time as the i.v. injection of radiolabeled PMNL. The accumulation of PMNL in these sites was quantified by biopsy of the injection sites using a 12-mm punch biopsy taken following sacrifice of the animals. At the time the rats were killed, cardiac blood was obtained to measure the blood leukocyte count and the leukocyte and plasma associated radioactivity. Joints were dissected and segments of limbs sectioned to include carpal, metacarpal, […] metatarsal joints for analysis as previously reported (Issekutz et al. Lab Invest. (1991), 64:656-63 and Issekutz et al. Arthritis Rheum. (2001), 44:1428-37). The content of ^51Cr in the joints, as well as in dermal skin sites and internal organs, was determined with a Wallac LKB 1280 gamma counter (Fisher Scientific, Nepean, ON). Accumulated isotope in the tissue was expressed as cpm/10^6 cpm injected i.v. In the same rats, the migration of PMNL to dermal inflammatory reactions was measured, these reactions being initiated at the time of radiolabeled PMNL injection. Thus the migration quantitated the acute reaction during the first two hours of the lesions.

## COc1cc2c(cc1O)CC[C@@H]1[C@@H]2CC[C@]2(C)[C@@H](O)CC[C@@H]12 [2ME2, 2-methoxyestradiol]
Lymph node cells; lymphocytes from rats given 30 mg/kg/d day 6-14, compared to vehicle-treated
  proliferative response to PPD (DNA incorporation): significantly reduced
Lymph node cells; lymphocytes from rats given 30 mg/kg/d day 6-14, no 2ME2 added to cultures
  proliferation induced by Con A or PHA: no difference
[1]; FIG. 1
  arthritic score: decreases
[1]; FIG. 2, 100 mg/kg versus control
  synovial inflammation: inhibits
[1]; FIG. 3, 100 mg/kg versus control
  periarticular inflammatory infiltrate and fibrosis: inhibition
[1]; FIG. 4, 100 mg/kg versus control
  loss of proteoglycan in articular cartilage and induction of osteoclast activity: prevents
[1]; FIG. 5
  severity of RA progression: inhibit
[1]; FIG. 7, 2ME2 in combination with methotrexate
  percent inhibition of arthritic score: unexpected increase
[1]; FIG. 8
  radiographic assessment: radiographic evidence of 2ME2's anti-rheumatic effect
[1]; Study SMP04-040, 1, 10, 100 mg/kg/d PO, prevention (start 1 day after induction), Panzem NCD formulation
  inhibition of clinical arthritic score, inflammation, cartilage degradation, bone resorption, and pannus formation: Dose-dependent
[1]; Study SMP05-009, 100 mg/kg/d, 100 mg/kg/week, 100 mg/kg twice a week PO, prevention
  inhibition of clinical arthritic score, inflammation, cartilage degradation, bone resorption, and pannus formation: Regimen-
[1]; Study SMP05-010, 10, 25, 50, 75, 100 mg/kg/d PO, prevention
  inhibition of clinical arthritic score, inflammation, cartilage degradation, bone resorption, and pannus formation: Dose-dependent
[1]; Study SMP05-046, 2ME2 10 or 100 mg/kg/d PO combined with MTX 0.1 or 1 mg/kg/d IP, prevention
  inhibition of clinical arthritic score upon combination of the two drugs: Additive
[1]; Study SMP05-046, 2ME2 PO in combination with MTX IP
  pathology in the liver: No pathology
[1]; Study SMP05-046, either drug alone (2ME2 10 or 100 mg/kg/d PO; MTX 0.1 or 1 mg/kg/d IP)
  pathology in the liver: No pathology
[2]; 2ME2 added on day of culture initiation, 6 days
  IC50, lymphocyte response to PPD: about 0.3 μg/mL
[2]; all cultures
  viability: ≥ 85 % live cells
[2]; in vitro
  spontaneous proliferation in unstimulated cultures: decreased
[2]; in vitro, compared with effect on PPD response
  proliferation induced by the mitogens (Con A, PHA): comparable inhibitory effect
[2]; lymph node cell cultures
  effect on viability: no effect on viability
[3]; UCLA Study #1, PO
  onset of disease: Delays onset
[3]; UCLA Study #1, prevention 30, 100 mg/kg/d PO, treatment 10, 30, 100 mg/kg/d PO
  inhibition of clinical arthritic score and bone erosion: Dose dependent
[3]; UCLA Study #2, treatment from day 10, 50 mg/kg BID, 100 or 300 mg/kg/d PO or 60 mg/kg/d SC osmotic pumps
  inhibition of clinical arthritic score, inflammation, and bone erosion, cartilage degradation and pannus formation: Dose dependent
Endothelial cell; optimal serum and endothelial cell growth supplements
  IC50, endothelial cell proliferation: approximately 0.5 μg/mL
Endothelial cell; optimal serum and growth supplements versus restricted
  concentration required for inhibition under optimal versus restricted growth conditions: two-fold higher concentration
Endothelial cell; read-out: IC50, endothelial cell proliferation, optimal serum and endothelial cell growth supplements
  IC50: ~1500 nM
Endothelial cell; restricted serum and growth factor
  concentration giving significant inhibition of endothelial cell proliferation: 0.25 µg/mL
[4]
  inhibition of clinical arthritic score, inflammation, and bone destruction: Dose dependent
Estrogen receptor β
  affinity for estrogen receptor β: low affinity
[5]; 25 mg/kg PO
  Steady-state AUC0-24: 66 ng·h/mL
[5]; 50 mg/kg PO
  Steady-state AUC0-24: 117 ng·h/mL
Synovial microvessels
  vessel density per 0.8 mm^2 (small, medium, large vessels) in synovium: no significant difference
[6]; dermal sites, 2 h migration
  PMNL migration to E. coli LPS: did not affect
  PMNL migration to complement chemotactic factor C5ades-arg: did not affect
[6]; either dose tested (30 or 100 mg/kg/d), starting at day 6 post-immunization
  inhibition of PMNL migration to sites injected with rat TNF-α: approximately 50%
[6]; treatment delayed to day 10, tendency for inhibition
  inhibition of PMNL migration to sites injected with rat TNF-α: did not reach significance
